Data from patent publication US20120046314A1, “[…] USE IN TREATING OR […]” (MITOS, INC., priority 2005, published 2012).

Experiments:
Cathepsin B = test: Gene expression in cardiac tissue of Tempol-fed mice (chip-based microarray); type: in vivo
Protocol: (§1) To assess the effects of Tempol on gene expression, Tempol was administered to experimental mice at a dose of 5 mg/g of food from 14 months to 31 months after birth. Mice receiving the same food without the addition of Tempol were used as a negative control. At the age of 31 months, the experimental animals were sacrificed and the hearts were surgically removed. The expression of a broad spectrum of genes in the cardiac tissue was assessed using chip-based microarray technology. Such chips are well known in the art and are widely used to assess gene expression.

Elongation factor-1-δ = test: as above; type: in vivo
Protocol: as §1

Meltrin-alpha (ADAM12) = test: as above; type: in vivo
Protocol: as §1

[1] = system: Mitogen activated protein kinase kinase 5; test: as above; type: in vivo
Protocol: as §1

[2] = system: Peroxisome Proliferator-Activated Receptor-δ; test: as above; type: in vivo
Protocol: as §1

Brain protein I3 (BRI3) = test: Gene expression in adipose tissue of Tempol-fed mice (Affymetrix MOE430A 2.0 array); type: in vivo
Protocol: (§2) In a further gene expression study, Tempol was administered to experimental mice at a dose of 5 g/kg of diet from 12 months through 15 months. Mice receiving the same diet without the addition of Tempol were used as a negative control. At the age of 15 months, the adipose tissue of the experimental animals was obtained. The expression of a broad spectrum of genes in the adipose tissue was assessed using chip-based microarray technology. Specifically, in this case an Affymetrix MOE430A 2.0 array, containing 12,960 genes, was employed. Such chips are well known in the art and are widely used to assess gene expression.

Cyclooxygenase 1 (COX-1) = test: as above; type: in vivo
Protocol: as §2

[3] = system: Glutathione S-transferase M3 (GSTM3); test: as above; type: in vivo
Protocol: as §2

[4] = system: Hypoxia-inducible factor, alpha subunit (HIF1A); test: as above; type: in vivo
Protocol: as §2

Sirtuin 2 (SIRT2) = test: as above; type: in vivo
Protocol: as §2

[5] = system: Superoxide dismutase 2 (SOD2); test: as above; type: in vivo
Protocol: as §2

[6] = system: Uncoupling protein 2 (UCP2); test: as above; type: in vivo
Protocol: as §2

[7] = system: p53-related apoptosis effector related to PMP-22 (PERP); test: as above; type: in vivo
Protocol: as §2

[8] = system: cancer-related proteins in the cancerous tissue; test: Example 1: protein levels in cancerous tissue of patient diagnosed with cancer after Tempol; type: in vivo, human; conditions: 70-kilogram patient diagnosed with cancer; 1500 mg per day for 180 days
Protocol: (§3) A 70-kilogram patient diagnosed with cancer is administered a dose of 1500 mg of Tempol per day for 180 days. This may be administered in a single dose, or may be administered as a number of smaller doses over a 24-hour period: for example, three 500-mg doses at eight-hour intervals. Following treatment, the protein levels of elongation factor-1 delta, ADAM12, cathepsin B, peroxisome proliferator-activated receptor-δ, hypoxia-inducible factor alpha subunit, superoxide dismutase 2, uncoupling protein 2, and cyclooxygenase 1 in the cancerous tissue are reduced, and the levels of mitogen-activated protein kinase kinase 5, glutathione S-transferase M3, PERP, sirtuin 2, and brain protein I3 are increased.

[9] = system: cancer-related proteins in the cancerous tissue; test: Example 2: protein levels in patient with familial risk factors for cancer after Tempol; type: in vivo, human; conditions: 70-kilogram patient with familial risk factors, no symptoms; 1500 mg per day for 180 days
From the text: as §3, with “This” for “A 70-kilogram patient diagnosed with cancer is administered a dose of 1500 mg of Tempol per day for 180 days. This”

[10] = 5 mg/g of food from 14 to 31 months, mouse tp51
[11] = 5 mg/g of food from 14 to 31 months, mouse tp52
[12] = 5 mg/g of food from 14 to 31 months, mouse tp53
[13] = Tempol-treated vs control mice, negative = downregulated
[14] = reduction in Tempol-treated animals
[15] = 5 g/kg of diet from 12 through 15 months
[16] = Tempol-treated vs control mice, negative = downregulated, P Value 0.004

For `CC1(C)CC(O)CC(C)(C)N1[O]` [Tempol, 4-hydroxy-2,2,6,6-tetramethylpiperidine-1-oxyl], which “Cathepsin B expression, TEMPOL-treated mice tp51” value (Cathepsin B; [10]) is on record?
The value was −12.

What about the “Cathepsin B expression, TEMPOL-treated mice tp52” value (Cathepsin B; [11]) of the same compound?
The value was 6.

What about the “Cathepsin B expression, TEMPOL-treated mice tp53” value (Cathepsin B; [12]) of the same compound?
Its value is 13.

What about the “Cathepsin B expression Fold change” value (Cathepsin B; [13]) of the same compound?
Its value is −2.8 fold.

And the “Cathepsin B expression reduced (fold)” value (Cathepsin B; [14])?
Its value is 2.8 fold.

What about the “Elongation factor-1-δ expression, TEMPOL-treated mice tp51” value (Elongation factor-1-δ; [10]) of the same compound?
The value was 12.

And the “Elongation factor-1-δ expression, TEMPOL-treated mice tp52” value (Elongation factor-1-δ; [11])?
The value was 115.

What about the “Elongation factor-1-δ expression, TEMPOL-treated mice tp53” value (Elongation factor-1-δ; [12]) of the same compound?
The value was 185.

What about the “Elongation factor-1-δ expression Fold change” value (Elongation factor-1-δ; [13]) of the same compound?
Its value is −5.9 fold.

What about the “Elongation factor-1-δ expression reduced (fold)” value (Elongation factor-1-δ; [14]) of the same compound?
The value was 5.9 fold.

And the “ADAM12 expression, TEMPOL-treated mice tp51” value (Meltrin-alpha (ADAM12); [10])?
The value was −16.

What about the “ADAM12 expression, TEMPOL-treated mice tp52” value (Meltrin-alpha (ADAM12); [11]) of the same compound?
Its value is −4.

And the “ADAM12 expression, TEMPOL-treated mice tp53” value (Meltrin-alpha (ADAM12); [12])?
Its value is −14.

What about the “ADAM12 expression Fold change” value (Meltrin-alpha (ADAM12); [13]) of the same compound?
The value was −2.3 fold.

And the “ADAM12 expression reduced (fold)” value (Meltrin-alpha (ADAM12); [14])?
Its value is 2.3 fold.

And the “MAPKK5 expression, TEMPOL-treated mice tp51” value [1, 10]?
Its value is 41.

And the “MAPKK5 expression, TEMPOL-treated mice tp52” value [1, 11]?
Its value is 84.

And the “MAPKK5 expression, TEMPOL-treated mice tp53” value [1, 12]?
The value was 63.

And the “MAPKK5 expression Fold change” value ([1]; Tempol-treated vs control mice, upregulated)?
The value was 2.2 fold.

And the “PPAR-δ expression, TEMPOL-treated mice tp51” value [2, 10]?
The value was 1.

What about the “PPAR-δ expression, TEMPOL-treated mice tp52” value [2, 11] of the same compound?
Its value is 19.

What about the “PPAR-δ expression, TEMPOL-treated mice tp53” value [2, 12] of the same compound?
Its value is 28.

And the “PPAR-δ expression Fold change” value [2, 13]?
The value was −2.3 fold.

What about the “PPAR-δ expression reduced (fold)” value [2, 14] of the same compound?
The value was 2.3 fold.

And the “BRI3 expression, Mean (Tempol-treated mice)” value (Brain protein I3 (BRI3); [15])?
Its value is 1835.

What about the “BRI3 expression Fold change” value (Brain protein I3 (BRI3); Tempol-treated vs control mice, upregulated, P Value 0.003) of the same compound?
Its value is 1.18 fold.

What about the “COX-1 expression, Mean (Tempol-treated mice)” value (Cyclooxygenase 1 (COX-1); [15]) of the same compound?
The value was 331.

And the “COX-1 expression Fold change” value (Cyclooxygenase 1 (COX-1); Tempol-treated vs control mice, negative = downregulated, P Value 0.006)?
The value was −1.18 fold.

What about the “COX-1 expression reduced (fold)” value (Cyclooxygenase 1 (COX-1); [14]) of the same compound?
Its value is 1.18 fold.

And the “GSTM3 expression, Mean (Tempol-treated mice)” value [3, 15]?
Its value is 74.

And the “GSTM3 expression Fold change” value ([3]; Tempol-treated vs control mice, upregulated, P Value 0.001)?
Its value is 7.52 fold.

What about the “HIF1A expression, Mean (Tempol-treated mice)” value [4, 15] of the same compound?
Its value is 2203.

What about the “HIF1A expression Fold change” value [4, 16] of the same compound?
Its value is −1.23 fold.

What about the “HIF1 alpha expression reduced (fold)” value [4, 14] of the same compound?
Its value is 1.23 fold.

And the “SIRT2 expression, Mean (Tempol-treated mice)” value (Sirtuin 2 (SIRT2); [15])?
The value was 686.

What about the “SIRT2 expression Fold change” value (Sirtuin 2 (SIRT2); Tempol-treated vs control mice, upregulated, P Value 0.048) of the same compound?
The value was 1.16 fold.

What about the “SOD2 expression, Mean (Tempol-treated mice)” value [5, 15] of the same compound?
The value was 4423.

And the “SOD2 expression Fold change” value [5, 16]?
The value was −1.33 fold.

And the “SOD2 expression reduced (fold)” value [5, 14]?
Its value is 1.33 fold.

What about the “UCP2 expression, Mean (Tempol-treated mice)” value [6, 15] of the same compound?
The value was 2140.

And the “UCP2 expression Fold change” value ([6]; Tempol-treated vs control mice, negative = downregulated, P Value 0.012)?
Its value is −1.61 fold.

And the “UCP2 expression reduced (fold)” value [6, 14]?
Its value is 1.61 fold.

What about the “PERP expression, Mean (Tempol-treated mice)” value [7, 15] of the same compound?
The value was 82.

And the “PERP expression Fold change” value ([7]; Tempol-treated vs control mice, upregulated, P Value 0.049)?
The value was 1.66 fold.

What about the “levels of MAPKK5, GSTM3, PERP, sirtuin 2 and brain protein I3” value [8] of the same compound?
The value was “increased”.

What about the “protein levels of elongation factor-1 delta, ADAM12, cathepsin B, PPAR-δ, HIF alpha subunit, SOD2, UCP2 and COX-1 in the cancerous tissue” value [8] of the same compound?
Its value is “reduced”.

What about the “levels of MAPKK5, GSTM3, PERP, sirtuin 2 and brain protein I3” value [9] of the same compound?
The value was “increased”.

What about the “protein levels of elongation factor-1 delta, ADAM12, cathepsin B, PPAR-δ, HIF alpha subunit, SOD2, UCP2 and COX-1 in the cancerous tissue” value [9] of the same compound?
Its value is “reduced”.
